Measurements published in patent publication US10022341B2, “Methods of preventing neurodegeneration of association cortex in a mammal” (YALE UNIVERSITY, priority 2014, dated 2018).
“Also recorded” adds a separate entry of the source.

Experiments:
[1] = tested on: phospho-COXIV-1 (p-S58) in aged monkey dlPFC; assay: Immunoblot of phospho-COXIV-1 (p-S58) in dlPFC after chronic daily treatment; type: in vivo; conditions: 0.001-0.1 mg/kg daily for 6 mos, n=1, pilot study
Description: FIG. 19 is a set of immunoblots and a bar graph illustrating that chronic daily treatment with the α2A-AR agonist, guanfacine, reduces abnormal phosphorylation of COXIV in the aged monkey dlPFC.
All samples were run on Invitrogen Novex 4-12% Tris-glycine gels using the Biorad Western blotting system. Lanes were transferred onto […] Nitrocellulose (Biorad) and incubated overnight in primary antibodies: anti PDE4A (Abcam, ab14607; 1:1000), anti-GAPDH (Advanced Immunochemical, mAb 6C5; 1:5000), anti-PDE4B (Pearson et al., 1985, Proc. Natl. Acad. Sci. USA 82:4531), anti-β-tubulin (T2200, Sigma; 1:5000), anti-PSD95 (EMD Millipore, mAb N68; 1:5000), anti-pSer214 (EMD Millipore, AB6972; 1:1000) for all experiments, except the primary culture experiment, where Abcam 4846 was used due to discontinuation of the previous antibody, anti-pThr231 (Pierce, OPA1-031556; 1:1000), anti-tau (clone 5E2, EMD Millipore, 05-348; 1:500-1:1000). Primary antibodies were labeled using the appropriate Licor IRDye 680 or 800 secondary antibody, and visualized using a Licor Odyssey Infra Red Scanner. Bands were quantified using Odyssey Software, and statistics performed by Student's T-test, unless stated otherwise.

aged monkeys (18-28 yrs) = assay: Working memory performance after chronic daily treatment; type: in vivo, monkey
[2] = tested on: p-S214 tau in aged monkey dlPFC; assay: Immunoblot of p-S214 tau in dlPFC after chronic daily treatment; type: in vivo; conditions: 0.001-0.1 mg/kg daily for 6 mos, n=1, pilot study
Description: FIG. 18 is a set of immunoblots and a graph illustrating the finding that chronic daily treatment with the α2A-AR agonist, guanfacine, reduces abnormal phosphorylation of tau in the aged monkey dlPFC.
Heat-stable tau was prepared as detailed in Bussière et al., 2003, J Comp Neurol. 463:281. Small blocks of dlPFC were surgically removed and flash-frozen before perfusion of subjects. A piece was placed into ice-cold homogenization buffer (10 mM Tris pH 7.4, 140 mM NaCl, 2 mM EGTA, plus protease and phosphatase inhibitors; 400 μL per 100 mg tissue) and homogenized by sonication. A small fraction was reserved for protein quantification for gel loading. NaCl was added to 250 mM, followed by addition of β-mercaptoethanol (14.3 M, Sigma) to 5% total volume. Samples were vortexed and heated to 100° C. for 15 min, vortexed, then cooled on ice for 30 min. Lysates were cleared by centrifugation at 16,100×g for 10 min at 4° C., and the supernatant used for immunoblotting. Band intensities were normalized by total heat-stable protein, quantified by measurement of major band intensities on a Coomassie stained gel (FIG. 5C).
All samples were run on Invitrogen Novex 4-12% Tris-glycine gels using the Biorad Western blotting system. […] Bands were quantified using Odyssey Software, and statistics performed by Student's T-test, unless stated otherwise.

[3] = humans; cited from earlier work
[4] = tested on: pS214-tau in mouse primary cortical neurons; assay: pSer214 phosphorylation assay in cultured neurons (immunoblot); type: cell-based
Description: FIG. 15 is a series of immunoblots illustrating the effect of PDE4 inhibition on phosphorylation of tau at Serine 214. Mouse primary cortical neurons between 7-11 days in vitro were preincubated with 10 μM rolipram or vehicle for 10 min, before being subjected to treatment with varying nM concentrations of forskolin (as indicated). Following this treatment, cells were lysed in 1% SDS with protease and phosphatase inhibitors (Complete Mini, Roche and PhosStop, Roche), and heated to 70° C. to prevent further phosphatase activity. Samples were quantified by BCA assay, and analyzed by imunoblotting. Blots were labeled for pSer214-tau (Abcam, 4846), total tau (EMD Millipore, clone 5E2) and GAPDH (Advanced Immunochemical, mAb 6C5). Bands were quantified using Image J, and total tau signals were normalized by GAPDH. p-Tau signals were then normalized to total tau signals.
Primary cortical neurons were prepared from P1 C57Bl/6 mice. One day prior to neuron production, plates were coated overnight with Poly-D-Lysine solution (Sigma). […]
Assays were performed on primary cortical neurons between 7-11 days in vitro. […] Samples were quantified by BCA assay, and analyzed by immunoblotting. In this instance, band intensity was quantified using ImageJ, and significance assessed by 2 way ANOVA using Graph Pad Prism software.

Structure (SMILES)	phospho-COXIV-1 (p-S58) expression in dlPFC compared to chronic vehicle [1]	working memory / cognitive performance compared to baseline (aged monkeys (18-28 yrs); 0.001 or 0.01 mg/kg daily for 6 months, n=4 or 5)	working memory / cognitive performance compared to baseline (aged monkeys (18-28 yrs); highest dose 0.1 mg/kg daily for 6 months, 0.1 mg/kg)	p-S214 tau expression in dlPFC compared to chronic vehicle [2]	safety of long-term treatment [3]	forskolin-induced increase in pS214-tau ([4]; 10 μM with forskolin, F(1,60)=8.882, p=0.0042)	pS214-tau level ([4]; PDE4 inhibition, FIG. 3G)
NC(N)=NC(=O)Cc1c(Cl)cccc1Cl [guanfacine, N-(diaminomethylidene)-2-(2,6-dichlorophenyl)acetamide]	reduces the expression of p-tau and phospho-COXIV-1; also recorded: decreasing phospho-COXIV-1; also recorded: decreased phospho-COXIV-1 expression	enhances cognitive performance; also recorded: significantly improved working memory performance	produced improvement in some monkeys but not in others; also recorded: highly variable and thus not significant	reduces the expression of p-tau; also recorded: dose-related reduction in phosphorylated tau at the pS214 site; also recorded: dose-related reduction in p-S214 expression	proven safe for long-term treatment	–	–
COc1ccc(C2CNC(=O)C2)cc1OC1CCCC1 (stereo not shown) [rolipram]	–	–	–	–	–	significantly increased	increased pS214-tau
